Assay results as given in patent publication US20250268873A1, “COMBINATION OF DUAL ATM AND DNA-PK INHIBITORS AND IMMUNOTHERAPEUTIC AGENTS FOR USE IN CANCER THERAPY” (XRAD THERAPEUTICS, INC., priority 2021, published 2025).

System: TBK1
Assay: Immunoblot of TBK1 phosphorylation in HCT116 cells
Assay type: cell-based, human
Settings: HCT116 p53 wild-type and p53−/− cells; 1 μM single agents, combination 0.5 or 1 micromolar each
Source text: Antibodies recognizing phosphorylated/activated ATM (S1981, #ab81292) and DNA-PKcs (S2056, #ab18192) were purchased from Abcam Biotechnology (Cambridge, MA). Antibodies to ATM (#A1106) and DNA-PKcs (#ab1832) were from Sigma and Abcam, respectively. Phospho-KAP1 (S824, #A300-767A) and KAP1 (A700-014) antibodies were from Bethyl Labs (Montgomery, TX). Phospho-TBK1 (#5483), cGAS (#15102), and pSTING (S366, #19781S) antibodies were from Cell Signaling Technology (CST) (Danvers, MA). STING (PA5-23381) antibodies were from ThermoFisher Scientific (Waltham, MA), and actin (#A5316) antibodies were from Sigma. All antibodies were diluted 1:1000 with the exception of actin which was diluted 1:3000 in 1×TBST (1×TBS-10×TBS, (Corning, 46-012-CM), 0.05% Tween-20 (P7949) Sigma and 1% BSA. Secondary antibodies used were (a) Li-Cor method-Goat anti-Rabbit (926-3221) and Goat anti-Mouse (926-68020) Li-Cor (b) ECL method: Anti-rabbit IgG, HRP-linked (#7074S), CST.
Cells were pretreated with Compound 569 at 20, 100, 500, or 1000 nM or DMSO for 30 min and then irradiated with 0 or 10 Gy (XRAD 160, Precision X Ray) as shown in FIG. 1. In FIG. 3, cells were pretreated with Compound 569 at 1 μM, ATMi (AZD0156) at 1 μM, DNA-PKi (peposertib) at 1 μM as single agents or DMSO or with ATMi and DNA-PKi in combination at 0.5 micromolar each or at 1 micromolar each for 30 min and then irradiated with 0 or 10 Gy (XRAD 160, Precision X Ray) as shown in FIG. 1. One hour after IR, cells were lysed in RIPA buffer ([…], pH 8.0, 150 mM NaCl, 0.1% SDS, 0.5% sodium deoxycholate, 1% IGEPAL® CA-630 (Sigma, 18896) for 20 min at 4° C. in the presence of protease and phosphatase inhibitor cocktails (Roche, #04693159001 & #04906837001). Cell lysates were centrifuged at 13,200 g for 10 min at 4° C. and supernatants were analyzed for protein content using BCA assay (Pierce™ BCA Protein Assay Kit, cat #23227, ThermoFisher Waltham, MA 02451) and equal amounts of protein/lane were used for subsequent immunoblot analyses. Proteins were denatured by adding NuPAGE LSD Sample Buffer [4×] […]

SMILES	phosphorylation of TBK1
CN(C)CCCOc1ccc(-c2ccc3ncc4c(c3c2)n(C2CCOCC2)c(=O)n4C)cn1 [AZD0156]	induction of phosphorylation of TBK1
COc1ccc([C@@H](O)c2cc(-c3ncnc4cc(N5CCOCC5)ccc34)c(F)cc2Cl)nn1 [peposertib]	induction of phosphorylation of TBK1
